Measurements: patent US8440442B2, “Method of assaying 5-FU” (Myriad Genetics, Inc, priority 2009, dated 2013)

Biological target: T1, dihydropyrimidine dehydrogenase (DPD) (Homo sapiens, UniProt Q12882)
T1 construct: from tissue; host or cells: donor whole blood (K2EDTA), plasma separated from it, and WBC/buffy coat
T1 sequence (Q12882 4-1025): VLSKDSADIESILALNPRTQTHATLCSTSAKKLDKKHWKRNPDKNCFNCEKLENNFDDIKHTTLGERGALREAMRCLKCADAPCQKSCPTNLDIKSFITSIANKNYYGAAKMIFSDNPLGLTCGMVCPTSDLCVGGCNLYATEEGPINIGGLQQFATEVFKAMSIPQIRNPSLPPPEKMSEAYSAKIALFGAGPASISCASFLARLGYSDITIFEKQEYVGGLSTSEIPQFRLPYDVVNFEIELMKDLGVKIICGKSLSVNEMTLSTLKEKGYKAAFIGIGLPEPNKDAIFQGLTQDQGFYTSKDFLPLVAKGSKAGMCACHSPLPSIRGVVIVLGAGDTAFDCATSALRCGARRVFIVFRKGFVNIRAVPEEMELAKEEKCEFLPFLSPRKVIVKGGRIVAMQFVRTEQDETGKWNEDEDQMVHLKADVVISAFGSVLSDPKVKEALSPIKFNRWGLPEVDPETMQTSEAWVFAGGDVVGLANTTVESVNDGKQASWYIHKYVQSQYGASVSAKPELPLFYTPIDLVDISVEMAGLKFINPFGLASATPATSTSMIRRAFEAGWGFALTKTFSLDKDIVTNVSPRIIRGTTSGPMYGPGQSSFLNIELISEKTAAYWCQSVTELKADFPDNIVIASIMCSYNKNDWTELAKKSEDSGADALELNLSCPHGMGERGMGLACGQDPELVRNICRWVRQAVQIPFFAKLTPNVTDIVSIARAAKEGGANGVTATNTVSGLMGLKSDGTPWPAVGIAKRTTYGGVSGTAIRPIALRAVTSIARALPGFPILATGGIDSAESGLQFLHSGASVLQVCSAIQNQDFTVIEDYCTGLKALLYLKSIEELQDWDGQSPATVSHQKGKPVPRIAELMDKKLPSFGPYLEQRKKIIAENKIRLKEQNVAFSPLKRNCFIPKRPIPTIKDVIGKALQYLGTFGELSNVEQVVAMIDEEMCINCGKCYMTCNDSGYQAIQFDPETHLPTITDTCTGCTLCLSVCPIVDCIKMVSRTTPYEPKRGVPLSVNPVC
Experiment: 5-Vinyluracil, 5-iodouracil and gimeracil as stabilizer of 5-FU in spiked donor blood
Assay type: biochemical
Conditions: 500 ng/mL 5-FU; 5-iodouracil 10/40 μg/mL, 5-vinyluracil 5/20 μg/mL, gimeracil 300/1,200 ng/mL; 45 minutes room temperature (FIG. 3)
Procedure: In the following illustrative examples, 5-FU was measured using an antibody-based agglutination assay on the Olympus AU680 Analyzer using an antibody disclosed in U.S. Pat. No. 7,205,116. Specifically, the concentration of 5-FU in a sample is determined based on the absorbance of a sample, which is determined by the amount of aggregation by the nanoparticles. The system requires two reagents, which when mixed in the absence of free 5-FU will form large aggregates of nanoparticles and scatter light to result in a higher absorption value. In the presence of free 5-FU, the agglutination reaction becomes somewhat inhibited and scattering of light is less, causing a lower absorption value. The instrument is calibrated twice monthly, and a curve is generated (Absorbance vs. 5-FU concentration). Absorbance values from individual samples are compared against this curve to determine concentration.
Generally in the agglutination assay, 95 μl of a buffer containing 5-FU-labeled amino-dextran is pipetted to a cuvette, followed by 7 μL of a filtered plasma sample. The sample and reagent are mixed and then incubated for about 3.5 minutes. 95 μl of 5-FU antibody-conjugated nanoparticles is pipetted into the cuvette and mixed. The complete reaction incubates for about 6.2 minutes. A series of 27 measurements at 600 nm are taken at regular intervals by the AU680 analyzer throughout this process, and 5-FU concentration is calculated using the measurements from two specific time points.
Three tubes of blood (spray-on K2EDTA tubes, 10 mL) was drawn from each of six donors, and blood tubes were gently inverted several times to mix anti-coagulant. Blood was pooled and kept separate by donor. An aliquot of each blood sample was transferred to a new conical tube, and a calculated volume of stock 5-FU (at 200 ng/μL) was spiked into each blood sample for a final concentration of 500 ng/mL 5-FU. Each blood sample was aliquotted to a set of four tubes (5 mL blood per tube). Each set of tubes was different, but included a combination of the conditions below: […]

- stabilizing 5-FU in blood samples: effective
SMILES: Oc1cc(O)c(Cl)cn1 [Gimeracil, 5-chloro-2,4-dihydroxypyridine]
